Reference: publication PMC6270160, “Bioactive Phenylpropanoid Glycosides from Tabebuia avellanedae” (Molecules, 2013)

Experiments:
[1] = DPPH free radical scavenging (antioxidant) assay; details: DPPH in MeOH, 30 min at room temperature in the dark, absorbance at 517 nm, triplicate; read-out: IC50 ± SD, scavenging activity on DPPH free radicals
Protocol: Test samples (100 µL) at different concentrations in MeOH and DPPH (200 µL, […]) in MeOH were added to 96-well microtiter plates. The plate was shaken for 1 min by a plate shaker, and incubated for 30 min at room temperature in the dark. After incubation, the absorbance was recorded at 517 nm. The tested samples at different concentrations without DPPH solution were used as blank control to eliminate the influence of the sample color. Ascorbic acid was used as positive control, and DPPH solution in MeOH served as a negative control. All tests were independently performed in triplicate. DPPH radical scavenging activity (%) = [1 − (AbsS − AbsB)/AbsC] × 100%.

cytochrome CYP3A4 enzyme = molecular target: T1, cytochrome CYP3A4 enzyme (Homo sapiens, UniProt P08684); assay: Inhibitory activity on cytochrome CYP3A4 enzyme (Vivid substrate, P450 BACULOSOMES, fluorescence); format: in vitro ADME; details: 20 min pre-incubation, 30 min reaction, fluorescence at 460 nm; read-out: IC50 ± SD, inhibitory activity on CYP3A4 enzyme
T1 construct: purchased
T1 sequence (P08684 whole entry): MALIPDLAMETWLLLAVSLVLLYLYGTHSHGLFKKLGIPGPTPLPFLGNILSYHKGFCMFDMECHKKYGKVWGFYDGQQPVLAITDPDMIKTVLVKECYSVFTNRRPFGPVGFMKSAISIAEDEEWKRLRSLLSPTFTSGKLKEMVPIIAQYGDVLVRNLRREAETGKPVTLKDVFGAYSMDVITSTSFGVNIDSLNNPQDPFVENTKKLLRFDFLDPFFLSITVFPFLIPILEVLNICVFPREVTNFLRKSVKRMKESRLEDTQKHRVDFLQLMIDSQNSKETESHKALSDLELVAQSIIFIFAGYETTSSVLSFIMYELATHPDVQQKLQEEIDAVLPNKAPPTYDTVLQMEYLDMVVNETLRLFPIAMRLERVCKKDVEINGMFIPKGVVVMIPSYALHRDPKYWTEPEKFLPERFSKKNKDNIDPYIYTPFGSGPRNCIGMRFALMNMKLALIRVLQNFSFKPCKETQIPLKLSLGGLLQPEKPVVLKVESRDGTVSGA
Protocol: Measurement of inhibitory activity on cytochrome CYP3A4 enzyme vivid substrate and fluorescent standards were reconstituted and a standard curve was prepared. 40 µL of test samples at different concentrations diluted in 1% DMSO, positive inhibition control and solvent were added to each 96-well plate, then was added 50 µL of Master pre-mix consisting of P450 BACULOSOMES in vivid CYP 450, Reaction Buffer and Regeneration System (consisting of glucose-6-phosphate and glucose-6-phosphate dehydrogenase), and the plate was mixed and incubated for 20 min to allow samples to interact with the CYP3A4 enzyme. The reaction was started by addition of 10 µL reaction starting liquid including vivid substrate, NADP and Reaction Buffer mixture, and the fluorescence was recorded using a LAS-3000 luminescent image analyzer at a wavelength of 460 nm after 30 min duration of reaction. The inhibition rate was calculated using the equation: % inhibition = [1 − relative fluorescence units (rfu) in the presence of the test sample or positive inhibition control/rfu in the absence of the test compound or positive inhibition control] × 100.

| IC50 [1] | IC50 (cytochrome CYP3A4 enzyme) | SMILES |
| --- | --- | --- |
| 0.66 ± 0.04 µM | 37.7 ± 2.11 µM | CC1OC(OC2C(O)C(OCCc3ccc(O)c(O)c3)OC(CO)C2OC(=O)C=Cc2ccc(O)c(O)c2)C(O)C(O)C1O (stereo not shown) [Compound 3] |
| 1.15 ± 0.04 µM | 91.7 ± 5.44 µM | CC1OC(OC2C(O)C(COC(=O)C=Cc3ccc(O)c(O)c3)OC(OCCc3ccc(O)c(O)c3)C2O)C(O)C(O)C1O (stereo not shown) [Compound 4] |
| 0.12 ± 0.03 µM | 22.5 ± 1.65 µM | C[C@@H]1O[C@@H](O[C@H]2[C@@H](O)[C@@H](CO)O[C@@H](OCCc3ccc(O)c(O)c3)[C@@H]2O)[C@H](O)[C@H](O)[C@H]1OC(=O)/C=C/c1ccc(O)c(O)c1 [Compound 5, 1'-O-β-(3,4-dihydroxyphenyl)-ethyl-[4′′-O-caffeoyl-(α-L-rhamnopyranosyl)]-(l-3′)-D-galactopyranoside] |
| 0.24 ± 0.01 µM | 15.1 ± 2.43 µM | CC1OC(OC2C(O)C(CO)OC(OCCc3ccc(O)c(O)c3)C2O)C(O)C(O)C1OC(=O)C=Cc1ccc(O)c(O)c1 [Compound 6, 1′-O-β-(3,4-dihydroxyphenyl)-ethyl-[4′′-O-caffeoyl-(α-L-fucopyranosyl)]-(l-3′)-D-galactopyranoside] |

Continued, molecule first:

| SMILES | IC50 [1] | IC50 (cytochrome CYP3A4 enzyme) |
| --- | --- | --- |
| O=C1O[C@H]([C@@H](O)CO)C(O)=C1O [Ascorbic acid, reference compound] | 3.08 ± 0.06 µM |  |
| CC1OC(OC2C(O)C(OCCc3ccc(O)c(O)c3)OC(CO)C2OC(=O)C=Cc2ccc(O)c(O)c2)C(O)C(O)C1O (stereo not shown) [Compound 1] | 2.33 ± 0.06 µM | 46.3 ± 1.53 µM |
| CC1OC(OC2C(O)C(OCCc3ccc(O)c(O)c3)OC(CO)C2OC(=O)C=Cc2ccc(O)c(O)c2)C(O)C(O)C1O [Compound 2, 1′-O-β-(3,4-dihydroxyphenyl)-ethyl-4′-O-caffeoyl-α-L-fucopyranosyl-(l-3′)-D-glucopyranoside] | 1 ± 0.02 µM | 43.3 ± 1.79 µM |
